# Assay results published in publication PMC11558128 (Advanced Science, 2024).
# Positions of bridges follow the written chain, without caps; N, C: chain ends. Residues, ends and D or L forms follow the SMILES beside them.
# Assays:
# [1] = molecular target: T1, rKv2.1 (Rattus norvegicus, UniProt P15387); experiment: Whole-cell patch clamp of rKv2.1 currents; assay type: cell-based; conditions: mean ± S.E.M., n = 6, SEM
# T1 construct: expressed in transfected cells; host or cells: HEK293T
# [2] = molecular target: T2, rKv4.2 M279A (Rattus norvegicus, UniProt Q63881, M279A); experiment: cell-based; conditions: mean ± SEM
# T2 construct: expressed in transfected cells; host or cells: HEK293T
# T2 sequence (Q63881 1-630 M279A): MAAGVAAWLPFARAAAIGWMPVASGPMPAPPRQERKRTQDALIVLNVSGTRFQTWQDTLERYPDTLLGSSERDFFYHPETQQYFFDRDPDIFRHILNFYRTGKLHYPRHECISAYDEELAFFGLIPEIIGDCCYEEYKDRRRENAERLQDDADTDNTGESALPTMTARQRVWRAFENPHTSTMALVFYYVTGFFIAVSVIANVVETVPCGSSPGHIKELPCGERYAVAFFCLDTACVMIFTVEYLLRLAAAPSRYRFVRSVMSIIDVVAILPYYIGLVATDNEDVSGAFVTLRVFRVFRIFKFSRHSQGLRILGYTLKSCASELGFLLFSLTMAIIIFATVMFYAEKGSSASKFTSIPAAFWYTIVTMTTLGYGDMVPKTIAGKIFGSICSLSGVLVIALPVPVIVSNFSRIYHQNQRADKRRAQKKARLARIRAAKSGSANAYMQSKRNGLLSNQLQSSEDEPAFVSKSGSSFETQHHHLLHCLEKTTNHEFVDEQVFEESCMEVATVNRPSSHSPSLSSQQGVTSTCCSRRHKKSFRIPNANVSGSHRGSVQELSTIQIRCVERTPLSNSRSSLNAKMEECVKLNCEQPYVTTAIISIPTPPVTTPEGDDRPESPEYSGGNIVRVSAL
# [3] = molecular target: T3, mKv4.1 (Mus musculus, UniProt Q03719); experiment: Whole-cell patch clamp of mKv4.1 currents; assay type: cell-based; conditions: mean ± S.E.M., n = 5, SEM
# T3 construct: expressed in transfected cells; host or cells: HEK293T
# T3 sequence (Q03719 whole entry): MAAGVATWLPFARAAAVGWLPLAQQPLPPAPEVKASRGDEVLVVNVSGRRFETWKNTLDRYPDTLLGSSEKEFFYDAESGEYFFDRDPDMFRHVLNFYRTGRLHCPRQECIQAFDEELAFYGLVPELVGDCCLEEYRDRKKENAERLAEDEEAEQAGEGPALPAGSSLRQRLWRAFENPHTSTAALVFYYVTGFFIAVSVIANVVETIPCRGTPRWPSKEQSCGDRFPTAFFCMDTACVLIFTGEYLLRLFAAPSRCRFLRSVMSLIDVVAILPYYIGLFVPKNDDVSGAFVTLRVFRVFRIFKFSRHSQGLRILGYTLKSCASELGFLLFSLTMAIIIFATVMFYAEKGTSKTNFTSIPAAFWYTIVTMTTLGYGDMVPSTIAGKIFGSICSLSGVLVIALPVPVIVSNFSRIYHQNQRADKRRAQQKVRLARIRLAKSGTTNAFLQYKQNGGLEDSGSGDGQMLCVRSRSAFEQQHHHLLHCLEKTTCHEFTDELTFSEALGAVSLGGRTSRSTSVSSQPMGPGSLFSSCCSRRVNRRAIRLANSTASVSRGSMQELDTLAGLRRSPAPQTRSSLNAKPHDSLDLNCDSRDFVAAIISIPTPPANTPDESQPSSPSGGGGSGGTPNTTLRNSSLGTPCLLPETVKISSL
# [4] = molecular target: T4, rKv4.2 D284A (Rattus norvegicus, UniProt Q63881, D284A); experiment: Patch clamp of rKv4.2 mutant D284A; assay type: cell-based; conditions: mean ± SEM
# T4 construct: expressed in transfected cells; host or cells: HEK293T
# T4 sequence (Q63881 whole entry D284A): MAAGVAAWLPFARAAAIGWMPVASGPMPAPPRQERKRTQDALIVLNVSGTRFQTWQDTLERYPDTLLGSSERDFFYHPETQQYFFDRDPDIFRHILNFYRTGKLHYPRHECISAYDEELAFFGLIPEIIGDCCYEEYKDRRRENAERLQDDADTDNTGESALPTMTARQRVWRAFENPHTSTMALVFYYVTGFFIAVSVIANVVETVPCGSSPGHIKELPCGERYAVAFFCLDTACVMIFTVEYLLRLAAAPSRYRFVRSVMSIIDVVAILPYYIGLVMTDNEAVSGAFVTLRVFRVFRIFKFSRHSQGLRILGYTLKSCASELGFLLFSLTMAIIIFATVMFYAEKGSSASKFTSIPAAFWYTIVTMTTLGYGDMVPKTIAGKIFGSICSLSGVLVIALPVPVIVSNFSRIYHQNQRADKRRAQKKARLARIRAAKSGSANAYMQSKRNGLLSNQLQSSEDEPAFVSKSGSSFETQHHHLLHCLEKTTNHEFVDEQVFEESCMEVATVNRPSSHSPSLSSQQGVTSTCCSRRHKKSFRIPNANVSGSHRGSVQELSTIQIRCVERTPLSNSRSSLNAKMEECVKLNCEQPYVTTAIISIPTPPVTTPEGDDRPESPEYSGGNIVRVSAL
# [5] = molecular target: T5, rKv4.2 D281A (Rattus norvegicus, UniProt Q63881, D281A); experiment: Patch clamp of rKv4.2 mutant D281A; assay type: cell-based; conditions: mean ± SEM
# T5 construct: expressed in transfected cells; host or cells: HEK293T
# T5 sequence (Q63881 whole entry D281A): as the sequence (Q63881 whole entry D284A) above, with D281A, A284D counted along it
# [6] = molecular target: T6, rKv4.2 E283A (Rattus norvegicus, UniProt Q63881, E283A); experiment: Patch clamp of rKv4.2 mutant E283A; assay type: cell-based; conditions: mean ± SEM
# T6 construct: expressed in transfected cells; host or cells: HEK293T
# T6 sequence (Q63881 whole entry E283A): as the sequence (Q63881 whole entry D284A) above, with E283A, A284D counted along it
# [7] = molecular target: T7, rKv4.2 D281N (Rattus norvegicus, UniProt Q63881, D281N); experiment: Patch clamp of rKv4.2 mutant D281N; assay type: cell-based; conditions: mean ± SEM
# T7 construct: expressed in transfected cells; host or cells: HEK293T
# T7 sequence (Q63881 whole entry D281N): as the sequence (Q63881 whole entry D284A) above, with D281N, A284D counted along it
# T1 sequence (P15387 whole entry): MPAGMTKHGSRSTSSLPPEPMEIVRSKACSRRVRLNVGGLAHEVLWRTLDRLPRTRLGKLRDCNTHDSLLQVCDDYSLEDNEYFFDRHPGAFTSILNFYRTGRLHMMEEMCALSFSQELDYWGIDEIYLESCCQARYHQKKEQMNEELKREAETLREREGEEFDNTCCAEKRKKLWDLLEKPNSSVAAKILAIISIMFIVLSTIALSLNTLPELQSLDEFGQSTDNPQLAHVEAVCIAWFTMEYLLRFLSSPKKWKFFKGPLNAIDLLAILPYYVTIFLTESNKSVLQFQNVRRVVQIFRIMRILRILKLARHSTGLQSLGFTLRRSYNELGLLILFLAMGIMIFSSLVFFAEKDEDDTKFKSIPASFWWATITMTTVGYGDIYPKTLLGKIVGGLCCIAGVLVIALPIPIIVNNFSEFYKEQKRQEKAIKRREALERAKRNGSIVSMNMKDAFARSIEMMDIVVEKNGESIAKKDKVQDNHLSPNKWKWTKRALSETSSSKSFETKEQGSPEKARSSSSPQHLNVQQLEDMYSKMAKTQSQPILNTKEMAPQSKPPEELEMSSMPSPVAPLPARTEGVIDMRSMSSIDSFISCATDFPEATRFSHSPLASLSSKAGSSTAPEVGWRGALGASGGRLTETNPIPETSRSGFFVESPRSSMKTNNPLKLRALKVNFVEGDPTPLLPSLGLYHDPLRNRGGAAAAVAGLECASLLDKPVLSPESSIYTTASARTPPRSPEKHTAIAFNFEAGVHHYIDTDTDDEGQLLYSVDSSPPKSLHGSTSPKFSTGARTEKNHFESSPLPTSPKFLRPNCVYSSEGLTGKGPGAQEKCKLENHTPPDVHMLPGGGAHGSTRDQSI
SMILES,IC50 [1] [nM],IC50 [2] [nM],IC50 [3] [nM],IC50 [4] [nM],IC50 [5] [nM],IC50 [6] [nM],IC50 [7] [nM]
CSCC[C@@H]1NC(=O)CNC(=O)[C@H](CCC(=O)O)NC(=O)[C@@H]2CSSC[C@H](NC(=O)[C@@H](N)Cc3ccc(O)cc3)C(=O)N[C@@H](CCC(N)=O)C(=O)N[C@@H](CCCCN)C(=O)N[C@@H](Cc3c[nH]c4ccccc34)C(=O)N[C@@H](CCSC)C(=O)N[C@@H](Cc3c[nH]c4ccccc34)C(=O)N[C@@H]([C@@H](C)O)C(=O)N[C@H]3CSSC[C@H](NC(=O)[C@H](C(C)C)NC1=O)C(=O)N[C@@H](CCCNC(=N)N)C(=O)N[C@@H](CC(C)C)C(=O)N[C@@H](Cc1c[nH]c4ccccc14)C(=O)N[C@H](C(=O)N[C@@H](CCCCN)C(=O)N[C@@H](CCCCN)C(=O)N[C@@H](CCCCN)C(=O)N[C@@H](CC(C)C)C(=O)N[C@@H](Cc1c[nH]c4ccccc14)C(=O)O)CSSC[C@H](NC(=O)[C@H](CCCCN)NC(=O)[C@H](CCCNC(=N)N)NC(=O)[C@H](CCC(=O)O)NC(=O)[C@H](CO)NC(=O)[C@H](CC(=O)O)NC3=O)C(=O)N2 [ProTx-II],78.7 ± 9,17 ± 5,38.1 ± 5.3,,,,
"CC(C)C[C@H](NC(=O)[C@H](Cc1ccc(O)cc1)NC(=O)[C@@H](NC(=O)[C@H](CCCCN)NC(=O)[C@@H]1CSSC[C@@H]2NC(=O)[C@H](CCC(=O)O)NC(=O)[C@H](CC(N)=O)NC(=O)[C@H](CCCCN)NC(=O)CNC(=O)[C@@H]3CCCN3C(=O)[C@H]([C@@H](C)O)NC(=O)[C@@H]3CSSC[C@H](NC(=O)[C@H](C)NC(=O)[C@H](Cc4ccc(O)cc4)NC(=O)[C@H](CC(N)=O)NC(=O)[C@@H]4CCCN4C(=O)[C@H](CSSC[C@H](NC(=O)CN)C(=O)N[C@@H](CCCCN)C(=O)NCC(=O)N[C@@H](Cc4ccccc4)C(=O)NCC(=O)N[C@@H](CC(=O)O)C(=O)N[C@@H](CO)C(=O)N3)NC2=O)C(=O)N[C@@H](CO)C(=O)N[C@@H](CO)C(=O)N[C@@H](CCCCN)C(=O)N[C@@H](Cc2c[nH]cn2)C(=O)N[C@@H](CCCCN)C(=O)N[C@@H](Cc2c[nH]c3ccccc23)C(=O)N1)C(C)C)C(N)=O [HNTX-III] (H-GCKGFGDSCTPGKNECCPNYACSSKHKWCKVYL-NH2; disulfide 2-17, 9-22, 16-29)",,1000 ± 347,,491 ± 72,214 ± 76,987 ± 303,131 ± 32
